# Data taken from patent publication US8524916B2, “Dithiinetetra(thio)carboximides” (Bayer CropScience AG, priority 2010, dated 2013).
# What was measured:
# Type in all cases: in vivo
# Venturia inaequalis = test: Venturia test (apple)/protective; conditions: apple young plants, protective spray, application rate 250 ppm, evaluation 10 days after inoculation; 0% = control, 100% = no infection
# Experimental: Venturia Test (Apple)/Protective [table] To produce an appropriate active ingredient formulation, 1 part by weight of active ingredient is mixed with the specified amounts of solvent and emulsifier, and the concentrate is diluted with water to the desired concentration. To test for protective activity, young plants are sprayed with the active ingredient formulation at the stated application rate. After the spray coating has dried on, the plants are inoculated with an aqueous conidia suspension of the apple scab pathogen Venturia inaequalis and then remain in an incubation cabin at approx. 20° C. and 100% relative air humidity for 1 day. The plants are then placed in a greenhouse at about 21° C. and a relative air humidity of approx. 90%.
# Alternaria solani = test: Alternaria test (tomato)/protective; conditions: tomato young plants, protective spray, application rate 250 ppm, evaluation 3 days after inoculation; 0% = control, 100% = no infection
# Experimental: Alternaria Test (Tomato)/Protective [table] To produce an appropriate active ingredient formulation, 1 part by weight of active ingredient is mixed with the specified amounts of solvent and emulsifier, and the concentrate is diluted with water to the desired concentration. To test for protective activity, young plants are sprayed with the active ingredient formulation at the stated application rate. After the spray coating has dried on, the plants are inoculated with an aqueous spore suspension of Alternaria solani. The plants are then placed in an incubation cabin at approx. 20° C. and 100% relative air humidity.
# Plasmopara viticola = test: Plasmopara test (grapevine)/protective; conditions: grapevine young plants, protective spray, application rate 250 ppm, evaluation 6 days after inoculation; 0% = control, 100% = no infection
# Experimental: Plasmopara Test (Grapevine)/Protective [table] To produce an appropriate active ingredient formulation, 1 part by weight of active ingredient is mixed with the specified amounts of solvent and emulsifier, and the concentrate is diluted with water to the desired concentration. To test for protective activity, young plants are sprayed with the active ingredient formulation at the stated application rate. After the spray coating has dried on, the plants are inoculated with an aqueous spore suspension of Plasmopara viticola and then remain in an incubation cabin at approx. 20° C. and 100% relative air humidity for 1 day. Subsequently, the plants are placed in a greenhouse at approx. 21° C. and approx. 90% air humidity for 4 days. The plants are then moistened and placed in an incubation cabin for 1 day.
# Phytophthora infestans = conditions: tomato young plants, protective spray, application rate 250 ppm, evaluation 3 days after inoculation; 0% = control, 100% = no infection
SMILES,Efficacy (%) (Venturia inaequalis),Efficacy (%) (Alternaria solani),also measured
Cn1c(=O)c2sc3c(=O)n(C)c(=S)c3sc2c1=O [drawing 24],99,–,–
Cn1c(=O)c2sc3c(=O)n(C)c(=S)c3sc2c1=O [drawing 26],–,95,–
Cn1c(=O)c2sc3c(=S)n(C)c(=O)c3sc2c1=S [drawing 27],–,76,–
Cn1c(=O)c2sc3c(=S)n(C)c(=O)c3sc2c1=S [drawing 25],71,–,–
Cn1c(=O)c2sc3c(=O)n(C)c(=S)c3sc2c1=O [drawing 23],–,–,Efficacy (%) (Plasmopara viticola): 83%
Cn1c(=O)c2sc3c(=O)n(C)c(=S)c3sc2c1=O [drawing 22],–,–,Efficacy (%) (Phytophthora infestans): 72%
